According to CN109096271A, “噻吩类化合物及其作为usp7抑制剂和抗肿瘤药物的应用” (China Pharmaceutical University, priority 2018, dated 2018):

Tests used:
[1] = test system: human colon cancer cells HCT-116 [人结肠癌细胞HCT-116]; assay: Antiproliferative activity on human colon cancer HCT-116 cells (MTT staining); format: cell-based; conditions: HCT-116 wild type, 72 h
[2] = target: T1, full-length USP7 enzyme [全长USP7酶] (Homo sapiens, UniProt Q93009); assay: Inhibition of full-length USP7 enzyme in vitro (Ub-AMC method); format: biochemical; conditions: half-maximal inhibitory concentration; full-length USP7, Ub-AMC substrate, 30 min preincubation at room temperature (25℃), 2 h reaction, pH 7.6; read-out: EC50 (the source's name)
T1 construct: 全长USP7蛋白,Ub-AMC底物蛋白,实验缓冲液
T1 sequence (Q93009 whole entry): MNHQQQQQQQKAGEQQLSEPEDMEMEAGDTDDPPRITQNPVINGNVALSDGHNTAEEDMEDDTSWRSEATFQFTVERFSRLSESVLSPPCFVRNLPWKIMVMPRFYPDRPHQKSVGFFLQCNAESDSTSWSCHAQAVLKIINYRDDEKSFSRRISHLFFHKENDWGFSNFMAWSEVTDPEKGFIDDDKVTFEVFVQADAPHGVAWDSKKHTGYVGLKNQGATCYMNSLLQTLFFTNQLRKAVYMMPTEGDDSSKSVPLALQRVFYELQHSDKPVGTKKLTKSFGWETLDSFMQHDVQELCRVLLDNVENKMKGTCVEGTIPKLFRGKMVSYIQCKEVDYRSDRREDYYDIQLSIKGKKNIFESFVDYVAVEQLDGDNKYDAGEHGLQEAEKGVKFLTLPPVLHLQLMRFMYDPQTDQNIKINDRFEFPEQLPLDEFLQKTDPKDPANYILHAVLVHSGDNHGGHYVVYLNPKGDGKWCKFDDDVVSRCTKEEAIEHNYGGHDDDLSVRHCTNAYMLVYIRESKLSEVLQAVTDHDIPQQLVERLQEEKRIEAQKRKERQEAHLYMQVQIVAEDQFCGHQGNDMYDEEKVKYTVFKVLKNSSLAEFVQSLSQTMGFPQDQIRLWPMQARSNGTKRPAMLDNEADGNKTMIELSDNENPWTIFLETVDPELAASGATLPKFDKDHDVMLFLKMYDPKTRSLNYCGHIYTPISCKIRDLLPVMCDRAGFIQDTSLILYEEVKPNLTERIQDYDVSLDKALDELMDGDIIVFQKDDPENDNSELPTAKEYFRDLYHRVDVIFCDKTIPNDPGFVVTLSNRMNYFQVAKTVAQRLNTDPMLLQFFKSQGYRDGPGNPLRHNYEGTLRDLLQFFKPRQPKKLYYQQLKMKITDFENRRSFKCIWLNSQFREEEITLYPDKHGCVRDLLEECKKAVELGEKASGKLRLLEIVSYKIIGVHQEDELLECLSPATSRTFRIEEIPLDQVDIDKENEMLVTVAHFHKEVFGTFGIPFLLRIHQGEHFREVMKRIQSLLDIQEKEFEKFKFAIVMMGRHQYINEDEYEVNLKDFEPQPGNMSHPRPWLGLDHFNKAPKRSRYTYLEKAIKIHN

| Compound | IC50 ([1]; Homo sapiens) [µM] | IC50 [2] [µM] | IC50 [1] [µM] |
| --- | --- | --- | --- |
| CC1CS(=O)(=O)c2cc(NC(=O)c3cc([N+](=O)[O-])c(Sc4c(Cl)cncc4Cl)[nH]3)ccc21 (stereo not shown) [I-2, 5-((3,5-二氯吡啶-4-基)硫基)-N-(3-甲基-1,1-二氧代-2,3-二氢苯并[b]噻吩-6-基)-4-硝基-1H-吡咯-2-甲酰胺] | > 50 | > 50 | – |
| CN1CCC(Oc2ccc(NC(=O)c3cc([N+](=O)[O-])c(Sc4c(Cl)cncc4Cl)s3)cc2)C1 (stereo not shown) [I-4, 5-((3,5-二氯吡啶-4-基)硫基)-N-(4-((1-甲基吡咯烷-3-基)氧基)苯基) -4-硝基噻吩-2-甲酰胺] | 2.65 | 4.45 | – |
| CN1CCC(Oc2ccc(NC(=O)c3cc([N+](=O)[O-])c(Sc4c(Cl)cncc4Cl)s3)cc2)CC1 [I-5, 5-((3,5-二氯吡啶-4-基)硫基)-N-(4-((1-甲基哌啶-4-基)氧基)苯基)-4-硝基噻吩-2-甲酰胺] | 2.39 | 2.85 | – |
| CS(=O)(=O)N1CCN(c2ccc(NC(=O)c3cc([N+](=O)[O-])c(Sc4c(Cl)cncc4Cl)s3)cc2)CC1 [I-9, 5-((3,5-二氯吡啶-4-基)硫基)-N-(4-(4-(甲基磺酰基)哌嗪-1-基)苯基) -4-硝基噻吩-2-甲酰胺] | 2.99 | 42.5 | – |
| ((3,5-二氯吡啶-4-基)硫基)-N-(4-((2-(4-甲基哌嗪-1-基)乙酰氨基)甲基) 苯基)-4-硝基噻吩-2-甲酰胺 [I-13] | – | 3.71 | 3.26 |
| CN1CCN(C(=O)c2ccc(NC(=O)c3cc([N+](=O)[O-])c(Sc4c(Cl)cncc4Cl)s3)cc2)CC1 [I-10, 5-((3,5-二氯吡啶-4-基)硫基)-N-(4-(4-甲基哌嗪-1-羰基)苯基)-4-硝基噻吩-2-甲酰胺] | 3.36 | 2.96 | – |
| CN1CCN(CC(=O)Nc2ccc(NC(=O)c3cc([N+](=O)[O-])c(Sc4c(Cl)cncc4Cl)s3)cc2)CC1 [I-15, 5-((3,5-二氯吡啶-4-基)硫基)-N-(4-(2-(4-甲基哌嗪-1-基)乙酰氨基)苯 基)-4-硝基噻吩-2-甲酰胺] | 4.87 | 7.26 | – |
| O=C(NCCN1CCOCC1)c1ccc(NC(=O)c2cc([N+](=O)[O-])c(Sc3c(Cl)cncc3Cl)s2)cc1 [I-12, ((3,5-二氯吡啶-4-基)硫基)-N-(4-((2-吗啉代乙基)氨基甲酰基)苯基)-4-硝基噻吩-2-甲酰胺] | 1.82 | 1.18 | – |

Further lines, results first:

| IC50 ([1]; Homo sapiens) [µM] | IC50 [2] [µM] | IC50 [1] [µM] | Compound |
| --- | --- | --- | --- |
| 1.98 | 4.56 | – | CN1CCCC(Oc2ccc(NC(=O)c3cc([N+](=O)[O-])c(Sc4c(Cl)cncc4Cl)s3)cc2)CC1 (stereo not shown) [I-6, 5-((3,5-二氯吡啶-4-基)硫基)-N-(4-((1-甲基吖庚烷-4-基)氧基)苯基)-4-硝基噻吩-2-甲酰胺] |
| 7.63 | 2.5 | – | CN(C)CCN1CCN(C(=O)c2ccc(NC(=O)c3cc([N+](=O)[O-])c(Sc4c(Cl)cncc4Cl)s3)cc2)CC1 [I-11, 5-((3,5-二氯吡啶-4-基)硫基)-N-(4-(4-(2-(二甲基氨基)乙基)哌嗪-1-羰基)苯基)-4-硝基噻吩-2-甲酰胺] |
| 3.48 | 6.9 | – | CN1CCCN(c2ccc(NC(=O)c3cc([N+](=O)[O-])c(Sc4c(Cl)cncc4Cl)s3)cc2)CC1 [I-7, 5-((3,5-二氯吡啶-4-基)硫基)-N-(4-(4-甲基-1,4-二氮杂环庚烷-1-基)苯基)-4-硝基噻吩-2-甲酰胺] |
| > 50 | > 50 | – | CC1CS(=O)(=O)c2cc(NC(=O)c3cc([N+](=O)[O-])c(Sc4c(Cl)cncc4Cl)n3C)ccc21 (stereo not shown) [I-3, 5-((3,5-二氯吡啶-4-基)硫基)-1-甲基-N-(3-甲基-1,1-二氧代-2,3-二氢苯并[b] 噻吩-6-基)-4-硝基-1H-吡咯-2-甲酰胺] |
| > 50 | > 50 | – | CC1CS(=O)(=O)c2cc(NC(=O)c3cc([N+](=O)[O-])c(Sc4c(Cl)cncc4Cl)o3)ccc21 (stereo not shown) [I-1, 5-((3,5-二氯吡啶-4-基)硫基)-N-(3-甲基-1,1-二氧代-2,3-二氢苯并[b]噻吩-6-基)-4-硝基呋喃-2-甲酰胺] |
| 8.53 | 6.59 | – | CN(C)CCN1CCN(C(=O)c2cc([N+](=O)[O-])c(Sc3c(Cl)cncc3Cl)s2)CC1 [I-17, (5-((3,5-二氯吡啶-4-基)硫基)-4-硝基噻吩-2-基)(4-(2-(二甲基氨基)乙 基)哌嗪-1-基)甲酮] |
| > 50 | > 50 | – | O=C(NCCc1ccc2c(c1)OCO2)c1cc([N+](=O)[O-])c(Sc2c(Cl)cncc2Cl)s1 [I-18, N-(2-(苯并[d][1,3]二氧杂环戊烯-5-基)乙基)-5-((3,5-二氯吡啶-4-基)硫基)-4-硝基噻吩-2-甲酰胺] |
| 4.74 | 3.65 | – | CN1CCN(CC(=O)NCc2ccc(NC(=O)c3cc([N+](=O)[O-])c(Sc4c(Cl)cncc4Cl)s3)cc2)CC1 [I-14, ((3,5-二氯吡啶-4-基)硫基)-N-(4-((2-(4-甲基哌嗪-1-基)乙酰氨基)甲基) 苯基)-4-硝基噻吩-2-甲酰胺] |
| 4.82 | 4.59 | – | O=C(NCCN1CCOCC1)c1cc([N+](=O)[O-])c(Sc2c(Cl)cncc2Cl)s1 [I-16, 5-((3,5-二氯吡啶-4-基)硫基)-N-(2-吗啉代乙基)-4-硝基噻吩-2-甲酰胺] |
